Reference: patent US3954793A, “1-(2-Propynyl)-1 H-indazole compounds” (priority 1973, dated 1976)

Legend:
[1] = test system: Rutgers A strain house flies; assay: topical application, percent kill after 24 hours, resistant Rutgers A strain; type: in vivo, female); details: for percent kill after 24 hours, with GS 13005: GS 13005 1.0 + synergist 5.0 μg/fly
Method in brief: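 Synergist plus mobam, Diazinon or GS 13005 dissolved in acetone, applied as 1.0 μl to the thorax of CO2-anaesthetised 3-to-5 day old female Rutgers A (resistant) house flies; doses in μg/fly. Flies held 10 per dish, 3-5 dishes per treatment, with skim milk; mortality scored at 24 h.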

male mice = assay: extension of sleeping time of depressant drugs by synergists; type: in vivo, male mice (Swiss albino white); details: for Mean Sleeping Time, Noludar / Relative Sleeping Time, Noludar: Noludar 110 mg/kg; for Relative Sleeping Time, Noludar / Relative Sleeping Time, Secobarbital: treated/control; for Mean Sleeping Time, Secobarbital / Relative Sleeping Time, Secobarbital: Secobarbital 37 mg/kg
Method in brief: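 Swiss albino male mice (~38 days, 25-30 g) given synergist at 74.0 or 110.0 mg/kg in corn oil 1 h before Secobarbital 37.0 mg/kg or Noludar 110.0 mg/kg in water. Sleeping time measured from drug dosing to righting-reflex recovery; relative sleeping time = treated ÷ drug-only control.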

[2] = test system: Swiss albino, white male mice; assay: acute toxicity and synergism of acute toxicity in mice; type: in vivo; details: for number of mice dead, with Dimetilan: 48 hours; for number of mice dead, with Dimetilan / number of mice dead, synergist alone: eight mice; for number of mice dead, with GS 13005: GS 13005 71 + synergist 213 mg/kg; for number of mice dead, with Methadone: Methadone 32 + synergist 215 mg/kg; for number of mice dead, with Secobarbital: Secobarbital 90 + synergist 215 mg/kg; for number of mice dead, synergist alone: synergist 1000 mg/kg i.p., Dimetilan 0, 72 hours
Method in brief: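 Male Swiss albino mice (23 to 27 g, five to six weeks), eight per dose, dosed intraperitoneally in corn oil: dimetilan alone at 4 to 32 mg per kg, synergists alone at 1000 mg/kg with deaths counted at 72 hours. For synergism, synergist given 1 hour before insecticide, lethality observed for at least 6 hours.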

[3] = Mobam 0.30 + synergist 1.5 μg/fly
[4] = Mobam 0.60 + synergist 3.0 μg/fly
[5] = insecticide 0, synergist 7.5 μg/fly
[6] = synergist 110 mg/kg one hour prior
[7] = Dimetilan 8 + synergist 240 mg/kg i.p.
[8] = insecticide 0, synergist 5.0 μg/fly
[9] = synergist 74 mg/kg one hour prior
[10] = Diazinon 1.0 + synergist 3.0 μg/fly
[11] = Diazinon 3.0 + synergist 3.0 μg/fly
[12] = Dimetilan 8 + synergist 80 mg/kg i.p.
[13] = Mobam 0.40 + synergist 2.0 μg/fly
[14] = Diazinon 1.5 + synergist 7.5 μg/fly
[15] = Diazinon 3.0 + synergist 15 μg/fly
[16] = insecticide 0, synergist 15 μg/fly

Row | Structure (SMILES) | percent kill after 24 hours, with Mobam [1, 3] [%] | percent kill after 24 hours, synergist alone [1, 5] [%] | Mean Sleeping Time, Noludar (male mice; [6]) [min] | Relative Sleeping Time, Noludar (male mice; synergist 110 mg/kg) | Mean Sleeping Time, Secobarbital (male mice; [6]) [min] | Relative Sleeping Time, Secobarbital (male mice; synergist 110 mg/kg) | number of mice dead, with Dimetilan [2, 7] | percent kill after 24 hours, with GS 13005 [1] [%] | percent kill after 24 hours, synergist alone [1, 8] [%] | number of mice dead, with GS 13005 [2] | number of mice dead, with Methadone [2] | number of mice dead, with Secobarbital [2] | number of mice dead, synergist alone [2] | Mean Sleeping Time, Secobarbital (male mice; [9]) [min] | Relative Sleeping Time, Secobarbital (male mice; synergist 74 mg/kg) | number of mice dead, with Dimetilan [2, 12] | further results
1 | C#CCOCc1c(Cl)ccc(Cl)c1Cl [II-E] | 70 | 0 | 45 | 1.1 | 44 | 1.4 | 0 | – | – | – | – | – | – | – | – | – | percent kill after 24 hours, with Mobam ([1]; Mobam 0.15 + synergist 0.75 μg/fly): 17%; percent kill after 24 hours, with Mobam [1, 4]: 99%
2 | C#CCOCc1ccccc1[N+](=O)[O-] [II-P, 2-nitrobenzyl 2-propynyl ether] | – | – | 44 | 1.5 | 46 | 1.0 | 0 | 92 | 0 | 6 | 0 | 0 | 2 | – | – | – | –
3 | C#CCOCc1ccc([N+](=O)[O-])cc1 [II-Q, 4-nitrobenzyl 2-propynyl ether] | – | – | 41 | 2.1 | 73 | 1.6 | 1 | 100 | 0 | 6 | – | – | 7 | 30 | 1.1 | – | –
4 | C#CCON=Cc1cccc([N+](=O)[O-])c1 [I-B] | 40 | – | 70 | 2.4 | 106 | 1.7 | 6 | 100 | 0 | – | – | – | – | 54 | 1.5 | 1 | percent kill after 24 hours, with Diazinon [1, 10]: 5%; percent kill after 24 hours, with Diazinon [1, 11]: 90%
5 | C#CCOCc1ccc(Cl)c(Cl)c1 [II-C] | 20 | 0 | 50 | 1.3 | 33 | 1.0 | 0 | – | – | – | – | – | – | – | – | – | percent kill after 24 hours, with Mobam [1, 4]: 67%
6 | C#CCOCc1ccc(Cl)c(Cl)c1Cl [II-D] | – | 0 | 46 | 1.0 | 60 | 1.2 | 0 | – | – | 3 | 2 | 1 | 0 | – | – | – | percent kill after 24 hours, with Mobam [1, 4]: 92%
7 | C#CCOCc1c(Cl)cccc1Cl [II-H] | – | – | 68 | 2.2 | 51 | 2.1 | 6 | 100 | 7 | 7 | 4 | 0 | 0 | 44 | 1.4 | 0 | percent kill after 24 hours, with Mobam [1, 13]: 100%
8 | C#CCON=Cc1ccc(Cl)cc1Cl [I-G] | – | 0 | 48 | 1.2 | 55 | 1.7 | 0 | – | – | – | – | – | – | 27 | 1.0 | – | percent kill after 24 hours, with Diazinon [1, 14]: 60%; percent kill after 24 hours, with Diazinon [1, 15]: 100%; percent kill after 24 hours, synergist alone [1, 16]: 0%
9 | C#CCON=Cc1cccc2ccccc12 [I-I] | – | 0 | 62 | 2.1 | 102 | 1.7 | 3 | – | – | – | – | – | – | 31 | 1.1 | 0 | percent kill after 24 hours, with Diazinon [1, 14]: 0%; percent kill after 24 hours, with Diazinon [1, 15]: 53%; percent kill after 24 hours, synergist alone [1, 16]: 0%
10 | C#CCOCc1c(Cl)cccc1[N+](=O)[O-] [II-K] | – | – | 75 | 2.4 | 44 | 2 | 6 | 100 | 0 | 3 | 2 | 1 | 1 | 48 | 1.5 | 0 | percent kill after 24 hours, with Mobam [1, 13]: 97%
11 | C#CCOCc1cc(Cl)c(Cl)cc1Cl [II-F] | – | – | 38 | 1.3 | 46 | 1.0 | 0 | – | – | – | – | – | – | – | – | – | –
12 | C#CCON=C(C)c1ccc2ccccc2c1 [I-F] | 38 | – | 55 | 1.4 | 70 | 2.2 | 4 | 95 | 0 | – | – | – | – | 32 | 1.1 | 0 | percent kill after 24 hours, with Diazinon [1, 10]: 5%; percent kill after 24 hours, with Diazinon [1, 11]: 95%
13 | C#CCOCc1cccc2ccccc12 [II-R, α-napthylmethyl 2-propynyl ether] | – | – | 49 | 1.7 | 96 | 1.6 | 2 | 55 | 0 | – | – | – | – | 35 | 1.2 | 0 | –
